The IC50 is the concentration that inhibits the measured activity by half.

T1 sequence (Q6QIY3 whole entry): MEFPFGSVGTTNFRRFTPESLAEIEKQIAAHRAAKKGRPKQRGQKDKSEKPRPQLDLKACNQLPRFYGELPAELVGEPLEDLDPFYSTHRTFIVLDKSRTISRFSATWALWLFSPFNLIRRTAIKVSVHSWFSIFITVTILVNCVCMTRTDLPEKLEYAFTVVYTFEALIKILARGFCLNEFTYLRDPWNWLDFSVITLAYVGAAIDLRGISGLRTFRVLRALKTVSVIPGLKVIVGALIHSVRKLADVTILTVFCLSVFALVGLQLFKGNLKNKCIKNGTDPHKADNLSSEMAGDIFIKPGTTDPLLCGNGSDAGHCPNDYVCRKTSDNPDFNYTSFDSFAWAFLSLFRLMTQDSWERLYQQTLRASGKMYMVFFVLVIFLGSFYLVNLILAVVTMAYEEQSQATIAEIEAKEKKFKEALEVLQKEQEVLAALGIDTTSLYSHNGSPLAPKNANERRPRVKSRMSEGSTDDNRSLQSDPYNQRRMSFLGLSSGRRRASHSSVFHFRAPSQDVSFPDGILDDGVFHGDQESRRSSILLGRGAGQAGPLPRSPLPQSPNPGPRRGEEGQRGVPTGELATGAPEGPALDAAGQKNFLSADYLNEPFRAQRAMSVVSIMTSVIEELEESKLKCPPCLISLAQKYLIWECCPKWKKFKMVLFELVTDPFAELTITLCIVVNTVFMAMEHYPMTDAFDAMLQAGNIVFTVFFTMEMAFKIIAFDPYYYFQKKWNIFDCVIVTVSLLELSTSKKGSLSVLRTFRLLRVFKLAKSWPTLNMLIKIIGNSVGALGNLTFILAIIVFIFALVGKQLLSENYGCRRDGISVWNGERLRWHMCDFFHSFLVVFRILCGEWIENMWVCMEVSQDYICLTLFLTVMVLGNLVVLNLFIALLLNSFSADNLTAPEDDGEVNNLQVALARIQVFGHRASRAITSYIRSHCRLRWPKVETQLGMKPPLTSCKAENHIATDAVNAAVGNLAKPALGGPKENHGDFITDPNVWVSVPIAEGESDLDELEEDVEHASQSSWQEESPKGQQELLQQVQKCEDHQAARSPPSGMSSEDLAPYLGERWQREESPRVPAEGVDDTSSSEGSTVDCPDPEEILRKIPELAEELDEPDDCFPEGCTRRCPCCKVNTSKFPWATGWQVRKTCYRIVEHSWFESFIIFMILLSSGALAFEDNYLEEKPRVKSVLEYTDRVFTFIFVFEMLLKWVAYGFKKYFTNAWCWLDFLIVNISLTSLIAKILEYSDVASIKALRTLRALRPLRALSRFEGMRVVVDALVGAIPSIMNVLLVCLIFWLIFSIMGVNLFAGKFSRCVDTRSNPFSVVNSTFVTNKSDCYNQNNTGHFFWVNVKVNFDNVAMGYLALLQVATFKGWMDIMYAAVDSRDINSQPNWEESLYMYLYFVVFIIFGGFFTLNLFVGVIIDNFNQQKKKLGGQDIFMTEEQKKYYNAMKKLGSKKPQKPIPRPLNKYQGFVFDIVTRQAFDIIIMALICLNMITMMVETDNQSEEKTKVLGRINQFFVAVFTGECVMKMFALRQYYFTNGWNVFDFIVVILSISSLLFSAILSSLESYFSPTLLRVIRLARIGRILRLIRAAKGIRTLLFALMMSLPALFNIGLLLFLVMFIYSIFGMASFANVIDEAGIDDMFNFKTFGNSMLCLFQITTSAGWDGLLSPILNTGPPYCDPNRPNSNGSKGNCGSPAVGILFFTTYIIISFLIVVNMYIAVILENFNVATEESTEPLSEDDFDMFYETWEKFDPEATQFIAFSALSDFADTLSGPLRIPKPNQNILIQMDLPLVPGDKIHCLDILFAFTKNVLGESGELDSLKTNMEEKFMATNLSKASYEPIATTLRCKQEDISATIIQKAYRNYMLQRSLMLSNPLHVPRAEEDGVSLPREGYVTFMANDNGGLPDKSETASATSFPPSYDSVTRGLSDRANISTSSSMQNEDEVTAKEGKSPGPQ

One test addresses T1, Nav 1.8 (Mus musculus, UniProt Q6QIY3).
T1 construct: host or cells: mouse, in vivo
Assay: not given
Particulars: mouse model of MS; cited from earlier work.
For the compound `CNC(=O)c1ccc(-c2cc(Cl)cc(Cl)c2Cl)c(N)n1` [PF 01247324, N-methyl-6-amino-5-(2,3,5-trichlorophenyl)pyridine-2-carboxamide], the “effect on cerebellar deficits” value is on record as “reverses cerebellar deficits”.

The target in another test is T2, human Nav1.8 (hNav1.8) ion channel (Homo sapiens, UniProt Q9Y5Y9).
T2 construct: expressed in transfected cells; host or cells: HEK293
T2 sequence (Q9Y5Y9 whole entry): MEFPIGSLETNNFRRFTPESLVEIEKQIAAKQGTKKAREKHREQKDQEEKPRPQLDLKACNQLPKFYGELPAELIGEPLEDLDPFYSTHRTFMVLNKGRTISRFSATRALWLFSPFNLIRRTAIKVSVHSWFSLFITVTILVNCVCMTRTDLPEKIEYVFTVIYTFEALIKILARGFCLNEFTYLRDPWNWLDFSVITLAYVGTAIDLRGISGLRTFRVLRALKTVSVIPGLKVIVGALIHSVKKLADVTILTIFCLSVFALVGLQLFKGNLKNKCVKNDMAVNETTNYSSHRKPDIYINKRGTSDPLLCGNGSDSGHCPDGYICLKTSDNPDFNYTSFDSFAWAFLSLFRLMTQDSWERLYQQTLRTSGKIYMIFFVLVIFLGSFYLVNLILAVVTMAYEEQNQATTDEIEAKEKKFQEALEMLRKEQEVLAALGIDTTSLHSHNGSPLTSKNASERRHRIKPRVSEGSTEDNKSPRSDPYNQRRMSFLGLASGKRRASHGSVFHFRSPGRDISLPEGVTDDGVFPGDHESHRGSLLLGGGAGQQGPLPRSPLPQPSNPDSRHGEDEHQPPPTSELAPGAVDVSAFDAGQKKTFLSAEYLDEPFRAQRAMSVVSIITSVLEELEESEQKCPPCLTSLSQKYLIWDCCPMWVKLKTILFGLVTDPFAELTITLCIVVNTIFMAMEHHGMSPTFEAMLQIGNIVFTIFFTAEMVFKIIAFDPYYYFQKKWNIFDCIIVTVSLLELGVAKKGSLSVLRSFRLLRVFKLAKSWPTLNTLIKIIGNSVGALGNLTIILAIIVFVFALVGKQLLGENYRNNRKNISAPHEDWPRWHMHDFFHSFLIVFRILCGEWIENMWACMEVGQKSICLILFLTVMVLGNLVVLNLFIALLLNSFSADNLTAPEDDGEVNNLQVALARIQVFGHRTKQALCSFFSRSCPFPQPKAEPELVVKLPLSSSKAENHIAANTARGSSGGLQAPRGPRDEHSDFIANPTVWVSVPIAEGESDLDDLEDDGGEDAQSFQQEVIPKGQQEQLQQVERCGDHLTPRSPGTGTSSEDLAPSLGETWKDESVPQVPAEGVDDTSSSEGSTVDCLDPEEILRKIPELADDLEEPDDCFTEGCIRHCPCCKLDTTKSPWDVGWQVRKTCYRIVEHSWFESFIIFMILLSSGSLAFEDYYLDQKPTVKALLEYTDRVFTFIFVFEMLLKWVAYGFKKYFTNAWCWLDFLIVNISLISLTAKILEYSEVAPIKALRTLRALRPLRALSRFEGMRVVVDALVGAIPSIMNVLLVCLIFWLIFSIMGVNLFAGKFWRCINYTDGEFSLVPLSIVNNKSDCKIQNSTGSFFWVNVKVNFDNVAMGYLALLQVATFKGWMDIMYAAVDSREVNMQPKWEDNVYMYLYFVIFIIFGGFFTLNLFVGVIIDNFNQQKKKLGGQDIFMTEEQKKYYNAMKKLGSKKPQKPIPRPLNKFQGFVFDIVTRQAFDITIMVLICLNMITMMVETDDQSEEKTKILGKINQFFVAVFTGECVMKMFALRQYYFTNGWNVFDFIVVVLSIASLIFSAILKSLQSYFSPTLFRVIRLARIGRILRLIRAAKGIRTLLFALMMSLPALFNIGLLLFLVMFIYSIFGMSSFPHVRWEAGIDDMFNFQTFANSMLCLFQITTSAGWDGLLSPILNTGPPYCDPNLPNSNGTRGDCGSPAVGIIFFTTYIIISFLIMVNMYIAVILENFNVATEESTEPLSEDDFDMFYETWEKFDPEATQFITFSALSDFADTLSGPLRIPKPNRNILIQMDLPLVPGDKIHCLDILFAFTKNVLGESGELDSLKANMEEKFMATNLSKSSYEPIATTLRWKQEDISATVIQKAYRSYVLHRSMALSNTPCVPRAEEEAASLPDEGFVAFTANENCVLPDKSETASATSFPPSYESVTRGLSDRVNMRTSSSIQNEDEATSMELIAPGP
The test can be described thus: Nav1.8 channel inhibition, estimated IC50 (one or more of: fluorescence inhibition assay, PatchXpress, IonFlux HT automated patch clamp). The format is cell-based. Particulars: HEK293 cells stably expressing hNav1.8; method used per compound not stated; read-out: Activity range (estimated IC50). The method in brief: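 HEK293 cells stably expressing hNav1.8 with β1/β2 subunits; IC50 from the fluorescence assay and/or automated whole-cell patch clamp (PatchXpress, IonFlux HT). Fluorescence: ANG-2 Na dye, 5 min compound preincubation (0.02–5 μM, 1% DMSO) with 30 μM ouabain, stimulation by 10 μM deltamethrin, peak signal fit logistically. PatchXpress: holding potential reset to Vhalf, inhibition normalized to control/washout currents.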
For `O=C(Nc1cccc(CO)c1)c1cc(C(F)(F)F)cnc1Oc1ccc(OC(F)(F)F)cc1Cl` [Example 160, 2-[2-chloro-4-(trifluoromethoxy)phenoxy]-N-[3-(hydroxymethyl)phenyl]-5-(trifluoromethyl)pyridine-3-carboxamide], the IC50 was below 500 nM.

As for `O=C(Nc1ccnnc1)c1cc(C(F)(F)F)cnc1Oc1ccc(OC(F)(F)F)cc1Cl` [Example 161, 2-[2-chloro-4-(trifluoromethoxy)phenoxy]-N-pyridazin-4-yl-5-(trifluoromethyl)pyridine-3-carboxamide], the IC50 is below 500 nM.

`CS(=O)(=O)c1ccc(F)c(NC(=O)c2cc(C(F)(F)F)cnc2Oc2ccc(OC(F)(F)F)cc2Cl)c1` [Example 162, 2-[2-chloro-4-(trifluoromethoxy)phenoxy]-N-(2-fluoro-5-methylsulfonyl-phenyl)-5-(trifluoromethyl)pyridine-3-carboxamide]: the IC50 is below 500 nM.

Regarding `O=C(Nc1cccc(F)c1)c1cc(C(F)(F)F)cnc1Oc1ccc(OC(F)(F)F)cc1Cl` [Example 163, 2-[2-chloro-4-(trifluoromethoxy)phenoxy]-N-(3-fluorophenyl)-5-(trifluoromethyl)pyridine-3-carboxamide], the IC50 is above 1000 nM.

With `Cc1cc(NC(=O)c2cc(C(F)(F)F)cnc2Oc2ccc(OC(F)(F)F)cc2Cl)ccn1` [Example 164, 2-[2-chloro-4-(trifluoromethoxy)phenoxy]-N-(2-methyl-4-pyridyl)-5-(trifluoromethyl)pyridine-3-carboxamide], the IC50 is below 500 nM.

`O=C(Nc1ccnc(F)c1)c1cc(C(F)(F)F)cnc1Oc1ccc(OC(F)(F)F)cc1Cl` [Example 165, 2-[2-chloro-4-(trifluoromethoxy)phenoxy]-N-(2-fluoro-4-pyridyl)-5-(trifluoromethyl)pyridine-3-carboxamide]: the IC50 is below 500 nM.

Take `O=C(Nc1cnns1)c1cc(C(F)(F)F)cnc1Oc1ccc(OC(F)(F)F)cc1Cl` [Example 166, 2-[2-chloro-4-(trifluoromethoxy)phenoxy]-N-(thiadiazol-5-yl)-5-(trifluoromethyl)pyridine-3-carboxamide]: the IC50 was 500 to 1000 nM.

Consider `Cn1nccc1NC(=O)c1cc(C(F)(F)F)cnc1Oc1ccc(OC(F)(F)F)cc1Cl` [Example 167, 2-[2-chloro-4-(trifluoromethoxy)phenoxy]-N-(2-methylpyrazol-3-yl)-5-(trifluoromethyl)pyridine-3-carboxamide], for which the IC50 was 500 to 1000 nM.

On to `Cc1ccc(S(C)(=O)=O)cc1NC(=O)c1cc(C(F)(F)F)cnc1Oc1ccc(OC(F)(F)F)cc1Cl` [Example 168, 2-[2-chloro-4-(trifluoromethoxy)phenoxy]-N-(2-methyl-5-methylsulfonyl-phenyl)-5-(trifluoromethyl)pyridine-3-carboxamide], for which the IC50 was 500 to 1000 nM.

As for `Cn1ncnc1NC(=O)c1cc(C(F)(F)F)cnc1Oc1ccc(OC(F)(F)F)cc1Cl` [Example 169, 2-[2-chloro-4-(trifluoromethoxy)phenoxy]-N-(2-methyl-1,2,4-triazol-3-yl)-5-(trifluoromethyl)pyridine-3-carboxamide], the half-inhibitory concentration (IC50) is above 1000 nM.

With `Cn1cnc(NC(=O)c2cc(C(F)(F)F)cnc2Oc2ccc(OC(F)(F)F)cc2Cl)n1` [Example 170, 2-[2-chloro-4-(trifluoromethoxy)phenoxy]-N-(1-methyl-1,2,4-triazol-3-yl)-5-(trifluoromethyl)pyridine-3-carboxamide], the IC50 is above 1000 nM.

With `CN=S(C)(=O)c1cccc(NC(=O)c2cc(C(F)(F)F)cnc2Oc2ccc(OC)cc2OC)c1` (stereo not shown) [Example 171, 2-(2,4-dimethoxyphenoxy)-N-[3-(N,S-dimethylsulfonimidoyl)phenyl]-5-(trifluoromethyl)pyridine-3-carboxamide], the IC50 is below 500 nM.

Take `COc1ccc(Oc2ncc(C(F)(F)F)cc2C(=O)Nc2cccc(S(C)(=N)=O)c2)c(OC)c1` (stereo not shown) [Example 172, 2-(2,4-dimethoxyphenoxy)-N-[3(methylsulfonimidoyl)phenyl]-5-(trifluoromethyl)pyridine-3-carboxamide]: the IC50 is below 500 nM.

Take `COc1ccc(Oc2ncc(C(F)(F)F)cc2C(=O)Nc2ccnnc2)c(OC)c1` [Example 173, 2-(2,4-dimethoxyphenoxy)-N-pyridazin-4-yl-5-(trifluoromethyl)pyridine-3-carboxamide]: the IC50 is above 1000 nM.

Take `CS(=N)(=O)c1cccc(NC(=O)c2cc(C(F)(F)F)cnc2Oc2ccc(F)cc2F)c1` (stereo not shown) [Example 174, 2-(2,4-difluorophenoxy)-N-[3-(methylsulfonimidoyl)phenyl]-5-(trifluoromethyl)pyridine-3-carboxamide]: the IC50 is below 500 nM.

As for `CN=S(C)(=O)c1cccc(NC(=O)c2cc(C(F)(F)F)cnc2Oc2ccc(F)cc2F)c1` (stereo not shown) [Example 175, 2-(2,4-difluorophenoxy)-N-[3-(N,S-dimethylsulfonimidoyl)phenyl]-5(trifluoromethyl)pyridine-3-carboxamide], the IC50 was below 500 nM.

For the compound `O=C(Nc1ccnnc1)c1cc(C(F)(F)F)cnc1Oc1ccc(F)cc1F` [Example 176, 2-(2,4-difluorophenoxy)-N-pyridazin-4-yl-5-(trifluoromethyl)pyridine-3-carboxamide], the IC50 is above 1000 nM.

As to `COc1cc(F)ccc1Oc1nc(C)c(C#N)cc1C(=O)Nc1cccc(S(C)(=O)=O)c1` [Example 177, 5-cyano-2-(4-fluoro-2-methoxy-phenoxy)-6-methyl-N-(3-methylsulfonylphenyl)pyridine-3-carboxamide], the concentration for half-maximal inhibition (IC50) is 500 to 1000 nM.

On to `COc1cc(F)ccc1Oc1nc(OC)c(F)cc1C(=O)Nc1cccc(S(C)(=O)=O)c1` [Example 178, 5-fluoro-2-(4-fluoro-2-methoxy-phenoxy)-6-methoxy-N-(3-methylsulfonylphenyl)pyridine-3-carboxamide], for which the IC50 was below 500 nM.

Turning to `COc1cc(F)ccc1Oc1ncc(OC(F)F)cc1C(=O)Nc1cccc(S(C)(=O)=O)c1` [Example 179, 5-(difluoromethoxy)-2-(4-fluoro-2-methoxy-phenoxy)-N-(3-methylsulfonylphenyl)pyridine-3-carboxamide], the IC50 was below 500 nM.

Consider `CS(=O)(=O)c1cccc(NC(=O)c2cc([N+](=O)[O-])cnc2Oc2ccc(OC(F)(F)F)cc2)c1` [Example 180, N-(3-methylsulfonylphenyl)-5-nitro-2-[4-(trifluoromethoxy)phenoxy]pyridine-3-carboxamide], for which the IC50 was below 500 nM.

`CS(=O)(=O)c1cccc(NC(=O)c2cc(Cl)cnc2Oc2ccc(OC(F)(F)F)cc2)c1` [Example 181, 5-chloro-N-(3-methylsulfonylphenyl)-2-[4-(trifluoromethoxy)phenoxy]pyridine-3-carboxamide]: the IC50 was below 500 nM.

The next test deals with Nav 1.8.
Assay: not given
Particulars: PTHS models (ex vivo cell model, rodent models); cited from earlier work.
Turning to `COc1cc(NC(=O)c2ccc(-c3ccc(Cl)cc3)o2)cc(OC)c1` [Example A-803467, 5-4(-chlorophenyl)-N-(3,5-dimethoxyphenyl)furan-2-carboxamide], the “effect on excitability phenotypes” value is “can rapidly reverse some of the excitability phenotypes”.

Turning to `COc1ccc(Cl)c(-c2ccc(NC(=O)c3ccnn3C)nc2N)c1` [PF 4531083, N-[6-amino-5-(2-chloro-5-methoxyphenyl)pyridin-2-yl]-1-methyl-1H-pyrazole-5-carboxamide], the “effect on excitability phenotypes” value is given as “can rapidly reverse some of the excitability phenotypes”.

The values above are taken from patent US12234221B2, “Pyridine carboxamide compounds for inhibiting NAV1.8” (Lieber Institute, Inc., priority 2018, dated 2025).
